Where two headings read alike, the source gives them in different places.

What is called IC50 is the concentration that gives 50% inhibition.

The subject of data set [1] is HCT116 cells. In words: Cytotoxicity assay (WST-1 cell viability). Format: cell-based, human. As to conditions: for cytotoxicity: HCT116 without GSH depletion; for IC50: Homo sapiens. On the technique in general: Tetrazolium assays rely on reduction of a dye to a coloured formazan, in cell work by metabolically active cells.
Data set [2] deals with MDA-MB-453 cells. In words: Cytotoxicity assay (WST-1 cell viability). Conditions: for IC50: Homo sapiens. Here is the method: Cell viability following drug treatments was assessed using WST-1 cell proliferation assay (Roche) Briefly, cells were plated into 96-well plates with 8,000 (HCT116) or 20,000 (MDA-MB-453) cells per well and allowed to attach overnight. Cells were then preincubated for 5 h in the presence or absence of 1 mM BSO. […] After 3 h of incubation at 37° C., the amount of formazan dye was quantified by measuring the optical density at 450 nm with a scanning multiwell spectrophotometer (PerkinElmer).
Cell viability following drug treatments was assessed using WST-1 cell proliferation assay (Roche). Briefly, cells were plated into 96-well plates with 8,000 (HCT116) or 20,000 (MDA-MB-453) cells per well and allowed to attach overnight. Cells were then preincubated for 5 h in the presence or absence of 1 mM BSO. […] After 3 h of incubation at 37° C., the amount of formazan dye was quantified by measuring the optical density at 450 nm with a scanning multiwell spectrophotometer (PerkinElmer).

The test system of data set [3] is HCT116 cells. The data set is described as follows: Apoptosis and necrosis assay (DiOC2(3)/DAPI flow cytometry). Format: cell-based, human. Here is the method: (§1) Cells were seeded in 6-well tissue culture plates (2.5×10^5 cells/well). MDA-MB-453 and HCT116 cells were first pre-treated or not for 48 h with 1 mM BSO. […] Cell-conditioned culture media, that may contain detached cells, were then collected and attached cells were trypsinized. Cells were combined with their corresponding conditioned media and collected by centrifugation at 1500 rpm for 10 min at 4° C. […] Cell- and DNA-associated fluorescence signals were quantified using a FACS-Aria (BD Biosciences) and data were analyzed with the […] software (BD Biosciences).
For orientation: Flow cytometry measures light scatter and fluorescence of single cells or particles in a stream.

Data set [4] concerns MDA-MB-453 cells. The description is as above. Type of data set: cell-based, human. Conditions: MDA-MB-453 without GSH depletion. Here is the method: as §1
The test system of a further data set is TrxR in MDA-MB-453 cells. The data set is described as follows: Endogenous TrxR activity in cell lysates (DTNB reduction assay). Type of data set: cell-based, human. As to conditions: MDA-MB-453 cells without GSH depletion.
The subject of the next data set is TrxR in MDA-MB-231 cells. In words: Endogenous TrxR activity (DTNB reduction assay). Type of data set: cell-based, human. As to conditions: GSH-depleted MDA-MB-231; iniparib 100 μM, Auranofin 1 μM, up to 4 h. From the text:
Initial velocities were derived from linear regression analyses and then plotted in double reciprocal plots to obtain the half time of TrxR inhibition using an one phase exponential decay analysis (Prism, GraphPad software).

Data set [5] deals with Trx1/2 in MDA-MB-231 cells. In words: Trx redox western blot analysis. As to conditions: GSH-depleted MDA-MB-231, 100 μM, 6h, increases further at 18h. Format: cell-based, human. The protocol: Quantification is obtained directly from the relative intensities of the different bands. Two forms of the redox Western blot have been developed, separating on the basis of differing charge (thiols are modified with a charged alkylating reagent) or mass (thiols are modified with a high-mass alkylating reagent). Redox analysis of the mitochondrial compartment is performed using a redox Western blot analysis of thioredoxin-2 (Trx2). Trx2 is exclusively found in mitochondria, so an analysis of a cell or tissue extract provides specific information on redox in the mitochondria without fractionation. Analysis is performed following derivatization with AMS. Trx2 contains two cysteine residues, and the addition of two molecules of AMS increases the mass by approximately 1000 Da. Oxidized and AMS derivatized forms are separated by non-reducing SDS polyacrylamide gel electrophoresis and detected by immunoblotting.
On the technique in general: In western blotting, separated proteins are transferred to a membrane and probed.

Data set [6] is described as follows: Phase I clinical trial GBM, safety, DLT and MTD.
Excerpt: It was a single arm, multi dose, dose escalating trial in newly diagnosed GBM patients. The total number of patients was 43, with about 5 patients per cohort. Patients who tolerated radiation (XRT) and temozolomide (TMZ) were recruited. Inclusion criteria included completion of XRT and TMZ without grade 3 or 4 toxicity and labs within acceptable range within 6 weeks of completing XRT. The end points included safety, maximum tolerated dose (MTD), and signal of activity.
Using modified continual reassessment method, MTD was defined for metronomic and standard dose TMZ.
For the next data set, the target named is rat liver TrxR (Rattus norvegicus, UniProt O89049). The data set is described as follows: Electron paramagnetic resonance, DEPMPO spin trapping. Conditions: 100 μM Iniparib, NADPH, aerobic.
In a further data set the test system is MDA-MB-231 cells. The data set is described as follows: Fluorescence microscopy, subcellular localization of iniparib-biotin targets. Type of data set: cell-based, human. As to conditions: MDA-MB-231, as early as 30 min following compound addition. The protocol:
MDA-MB-231 cells were platted on polylysine D coated thin glass bottom microscope chambers (Ibidi). […] For subcellular localization experiments mitochondria were stained with 100 nM Mitotracker Red CMX (Molecular probes) added for 10 min. This stain was performed before fixation (Paraformaldehyde 3.7% in PBS pH 7.4). Biotin was developed, after Triton X100 (0.3% in PBS, 15 min) permeabilization and saturation (1% BSA+1% gelatin in PBS: saturation buffer), with Alexa-488 streptavidin (Molecular Probes) conjugate (1 μg/ml in saturation buffer). Nuclei were stained with Hoechst (Molecular Probes) and samples mounted in antifading solution (Ibidi).
Cells were imaged with a PLAN NeoFluar 40× (NA 1.3) or 100×, (NA 1.46) oil objectives on a LSM510 (Zeiss) confocal microscope. Laser lines, filters and dichroic mirrors were selected for maximal separation of the green (Ex./Em. 488/530 nm) and the red fluorescence (Ex./Em. 543/LP 585 nm). Nuclei were observed (Ex./Em. 405/460 nm). For co-localization stacks of images separated by 400 nm along z-axis were acquired. Post-capture processing was done using LSM510 software, stacks of confocal images were deconvoluted using the ImageJ software.

rat liver TrxR, sequence (O89049 whole entry): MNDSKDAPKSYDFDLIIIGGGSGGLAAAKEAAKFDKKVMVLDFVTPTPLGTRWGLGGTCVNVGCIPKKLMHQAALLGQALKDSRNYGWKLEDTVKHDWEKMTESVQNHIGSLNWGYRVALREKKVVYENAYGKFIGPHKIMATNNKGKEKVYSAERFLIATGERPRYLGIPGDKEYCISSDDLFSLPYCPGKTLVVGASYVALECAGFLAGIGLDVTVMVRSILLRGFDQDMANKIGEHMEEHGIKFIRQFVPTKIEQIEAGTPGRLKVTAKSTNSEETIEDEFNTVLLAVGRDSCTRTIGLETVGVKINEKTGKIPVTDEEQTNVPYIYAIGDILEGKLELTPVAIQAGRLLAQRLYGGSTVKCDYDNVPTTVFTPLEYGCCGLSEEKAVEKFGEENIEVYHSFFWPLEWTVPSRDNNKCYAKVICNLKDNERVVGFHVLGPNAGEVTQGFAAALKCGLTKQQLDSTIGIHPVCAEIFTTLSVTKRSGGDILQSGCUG
Description for rat liver TrxR: Computer simulations of the spectra were performed using the program written by Rockenbauer and Korecz (25). […] Then the reaction mixture was transferred by aspiration into a gas permeable PTFE tubing (Extruded Sub-Lite-Wall®, inside diameter: 0.635 mm, wall thickness: 0.051 mm, Zeus Industrial Products Ltd., Ireland). The tubing was folded twice in a W-shape and inserted into a 4-mm EPR quartz tube for EPR analysis. […] To confirm the involvement of superoxide in the appearance of the EPR signal, 100 units of superoxide dismutase (SOD) were added to the incubation prior to TrxR addition. For anaerobic experiments, the reaction mixture was immediately transferred into the gas permeable tubing and nitrogen gas was flushed through a septum cap in the sealed EPR quartz tube during the whole experiment.

For `NC(=O)c1ccc(I)c([N+](=O)[O-])c1` [Iniparib, 4-iodo-3-nitrobenzamide], the cytotoxicity result in the data set with HCT116 cells [1] (after 24 h, concentrations up to 100 μM) is “marginal cytotoxicity”; with HCT116 cells [1] (up to 100 μM of Iniparib), “no cytotoxicity was detected”. Further, the IC50 is over 100 µM in the data set on HCT116 cells [1] (HCT-116, 24 h, read-out: IC50 (cytotoxicity), HCT116 cells not depleted of GSH, transitory or 24 h exposure); 8.2 µM in the data set on HCT116 cells [1] (HCT-116, read-out: IC50 (cytotoxicity), HCT116, GSH depletion (Example 2)); 8.4 ± 0.5 µM with HCT116 cells [1] (HCT-116, read-out: IC50 (cytotoxicity), HCT116 after GSH depletion with BSO (Example 1)); 16.2 µM with MDA-MB-453 cells [2] (MDA-MB-453, read-out: IC50 (cytotoxicity), MDA-MB-453, GSH depletion (Example 2)); 85 µM in the data set on MDA-MB-453 cells [2] (MDA-MB-453, read-out: IC50 (cytotoxicity), MDA-MB-453, absence of BSO (Example 2)); 17.8 ± 2.9 µM with MDA-MB-453 cells [2] (MDA-MB-453, read-out: IC50 (cytotoxicity), MDA-MB-453 after GSH depletion with BSO (Example 1)). In the data set with MDA-MB-453 cells [2] (MDA-MB-453, read-out: IC50 (cytotoxicity), MDA-MB-453 without BSO pre-treatment, 48 h (Example 1)), the IC50 was found to be 84 ± 6.5 µM. Moreover, the “augmentation of cytotoxicity by GSH depletion” value with MDA-MB-453 cells [2] (MDA-MB-453, BSO vs no BSO) turned out to be 4 fold. For the same molecule, the “treatment time from which apoptotic phenotype clearly detected” value in the data set with HCT116 cells [3] (GSH-depleted HCT116, 100 μM) turned out to be 6 h. For the same molecule, the cell death phenotype result in the data set with HCT116 cells [3] (GSH-depleted HCT116, 9 h, 100 μM) was “induced both necrotic and late apoptotic related phenotypes”. For the same molecule, the apoptotic phenotype induction entry with MDA-MB-453 cells [4] is “much slower than in HCT116 cells”. For the same molecule, the TrxR reductase activity result was “reductase activity inhibition” in the data set with TrxR in MDA-MB-453 cells and “inhibition of the TrxR reductase activity” in the data set with TrxR in MDA-MB-231 cells. Also, the Trx oxidation status entry in data set [5] was “accumulation of oxidized Trx”. Also, the “Phase 2 dose defined” value in [6] (IV 2×/wk with metronomic TMZ) came out at 8.6 mg/kg; in data set [6] (IV 2×/wk with standard TMZ), 8 mg/kg. The “DEPMPO/HOO• adduct signal” value on rat liver TrxR was “five-fold”. Moreover, the “DEPMPO/HO• adduct signal” value on rat liver TrxR is “doubled”.

As to `O=C(CCCC[C@@H]1SC[C@@H]2NC(=O)N[C@@H]21)NCCNC(=O)c1ccc(I)c([N+](=O)[O-])c1` [Iniparib-biotin, 4-iodo-3-nitro-N-(2-(5-((3 aS,4S,6aR)-2-oxohexahydro-1H-thieno[3,4-d]imidazol-4-yl)pentanamido)ethyl)benzamide], the “protein modification, subcellular localization” value in the data set with MDA-MB-231 cells was “covalently modified cytosolic and mitochondrial proteins were detected”.
